Measured values: article PMC10244169, “Psychedelics promote plasticity by directly binding to BDNF receptor TrkB” (Nature Neuroscience, 2023)

Legend:
[1] = molecular target: T1, TrkB (Rattus norvegicus, UniProt Q63604); test: biochemical; format: binding
T1 construct: expressed in transfected cells; host or cells: HEK293T

[2] = tested on: dendritic arbor complexity of neuronal cultures; test: Dendritogenesis (Sholl analysis) in neuronal cultures (WT and Y433F^+/−); format: cell-based, mouse; settings: for Sholl analysis, Mean at distance from soma: fig 6j
Procedure: In a separate set of experiments to study the effects of extracellular BDNF and 5-HT2A activation, cultures were also pretreated for 10 min with TrkB.FC (200 ng ml^−1) or M100907 (100 nM), respectively. Similar to treatment with the psychedelics, TrkB.FC and M100907 pretreatments were administered in cumulative doses and remained in the medium for the rest of the experiment. At DIV7, neurons were pre-incubated for 1 h with […] MgCl2 to prevent excitotoxicity, then neurons were transfected for the heterologous expression of mCherry. To minimize any possible interference of the transfection protocol upon the drug effect, transfection was done in the morning while treatment with psychedelics was always added in the evening. Twenty-four hours after transfection, neurons were fixed with 4% PFA for 20 min at room temperature, washed in PBS-T, blocked for 30 min with 3% BSA in PBS-T and incubated with chicken anti-MAP2 (Abcam, ab5392; 1:5,000, 1 h, room temperature). Then, coverslips were washed in PBS-T and incubated with Alexa Fluor 647-conjugated antibody goat anti-chicken (Invitrogen, A-21449; 1:1,000, 1 h, room temperature). Next, coverslips were washed in PBS-T and MilliQ water, and mounted in Dako fluorescence mounting medium (Agilent, S302380-2). Ten optical sections with a Z-step of 1.3 μm were acquired using a Zeiss LSM 710 confocal microscope with a LCI Plan/Neofluar 25×/0.8 lmm Korr DIC M27 objective. In the mCherry channel, the center of the soma was manually assigned and the number of dendritic intersections at fixed distances (every 5 μm) from the soma was automatically counted using the Sholl analysis plugin of ImageJ.

[3] = tested on: spine density of neuronal cultures; test: Spinogenesis in mature neuronal cultures (WT and Y433F^+/−); format: cell-based, mouse; set-up: 6d: Mean (spinogenesis, spine density) / 6e: Mean (spinogenesis, spine density): unit not given here
Procedure: Spinogenesis experiments were performed similarly to previous studies[12],[13] with modifications. […] In a separate set of experiments to study the effects of extracellular BDNF and 5-HT2A activation, cultures were also pretreated for 10 min with TrkB.FC (200 ng ml^−1) or M100907 (100 nM), respectively. TrkB.FC and M100907 remained in the medium for the rest of the experiment. Twenty-four hours later, coverslips were fixed with 4% PFA, washed with PBS, incubated with blocking buffer (0.1% Triton X-100, 0.05% Tween-20, 10% normal donkey serum, 1% BSA and 0.1% gelatin in PBS) for 1 h at room temperature and then overnight with rabbit anti-MAP2 (Invitrogen, PA5-17646; 1:100) primary antibody at 4 °C. After washing with PBS, coverslips were incubated with CF568-conjugated donkey anti-rabbit (Biotium, 20098; 1:500) for 1 h at room temperature. Another round of PBS washes was followed by incubation with Alexa Fluor 647-conjugated phalloidin (Invitrogen, A22287; 1:40) overnight at 4 °C. Next, coverslips were briefly washed in phosphate buffer (PB) and mounted on slides with ProLong Glass Antifade Mountant (Invitrogen, P36982). We used a Zeiss LSM 880 confocal microscope with an AiryScan GaAsP detector equipped with a PlanApochromat 63×/1.4 NA objective. We used the BP 495–550 + LP 570 AiryScan filter and Zen Black in super-resolution mode for image acquisition. Pinhole size was adapted accordingly, and frame size was set to optimal. Sensors were set to continuous adjustment across the imaging sessions to ensure optimal sensor alignment and signal detection. Raw data were processed into AiryScan images with the autofilter mode on using Zen Blue. Finally, image analysis was performed in ImageJ by experimenters blinded for treatment and genotype. Spines were quantified in 15-µm-long dendrite sections.

[4] = ext fig 1f, competition curve, n=5
[5] = TrkB.FC 200 ng ml^−1 or M100907 100 nM

T1 sequence (Q63604 32-821): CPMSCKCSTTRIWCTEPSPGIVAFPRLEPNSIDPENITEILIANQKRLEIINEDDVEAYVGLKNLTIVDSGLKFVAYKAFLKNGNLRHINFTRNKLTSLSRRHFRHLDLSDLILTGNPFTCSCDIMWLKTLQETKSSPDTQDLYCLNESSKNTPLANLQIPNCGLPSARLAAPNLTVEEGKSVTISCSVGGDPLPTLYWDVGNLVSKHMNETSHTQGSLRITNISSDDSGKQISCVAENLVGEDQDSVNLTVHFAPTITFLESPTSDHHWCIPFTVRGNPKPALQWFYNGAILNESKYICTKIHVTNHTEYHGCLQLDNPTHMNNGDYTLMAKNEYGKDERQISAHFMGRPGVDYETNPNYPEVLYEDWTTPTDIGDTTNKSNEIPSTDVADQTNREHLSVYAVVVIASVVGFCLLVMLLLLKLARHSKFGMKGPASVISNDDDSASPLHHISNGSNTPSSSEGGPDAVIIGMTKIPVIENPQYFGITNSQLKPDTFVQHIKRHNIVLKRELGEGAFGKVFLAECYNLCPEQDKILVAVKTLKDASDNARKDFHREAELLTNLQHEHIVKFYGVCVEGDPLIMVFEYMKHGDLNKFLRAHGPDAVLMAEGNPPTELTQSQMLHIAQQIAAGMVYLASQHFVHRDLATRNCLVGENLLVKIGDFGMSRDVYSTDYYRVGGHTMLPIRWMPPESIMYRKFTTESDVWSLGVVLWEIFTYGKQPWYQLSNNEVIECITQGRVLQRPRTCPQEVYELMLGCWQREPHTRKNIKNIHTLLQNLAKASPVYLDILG

COc1cccc([C@H](O)C2CCN(CCc3ccc(F)cc3)CC2)c1OC [M100907]
displacement of ^3H-LSD from TrkB ([1]; 1 nM to 10 µM of drug): fail to displace LSD binding to TrkB
Fit status, specific binding with Hill slope ([1]; ext fig 1f): Ambiguous
Bmax (specific binding with Hill slope, best-fit) [1, 4]: 94.18
h (Hill slope, best-fit) [1, 4]: ~ 1.901
effect of pretreatment on LSD effects on dendritogenesis [2, 5]: not M100907 prevented LSD effects on dendritogenesis
dendritic arbor complexity, Mean Diff. (Vehicle:vehicle vs. group) ([2]; fig 6i, Bonferroni's multiple comparisons test): -9.087
dendritic arbor complexity, group mean (Mean 2) ([2]; fig 6i, treatment:pretreatment groups, Vehicle:vehicle mean 69.72): 78.81
Sholl analysis, Mean at distance from soma ([2]; distance from soma 10 µm): 6.619
Sholl analysis, Mean at distance from soma ([2]; distance from soma 15 µm): 6.476
Sholl analysis, Mean at distance from soma ([2]; distance from soma 20 µm): 6.048
Sholl analysis, Mean at distance from soma ([2]; distance from soma 25 µm): 6.333
Sholl analysis, Mean at distance from soma ([2]; distance from soma 30 µm): 5.286
Sholl analysis, Mean at distance from soma ([2]; distance from soma 35 µm): 4.524
Sholl analysis, Mean at distance from soma ([2]; distance from soma 40 µm): 4.619
Sholl analysis, Mean at distance from soma ([2]; distance from soma 45 µm): 3.714
Sholl analysis, Mean at distance from soma ([2]; distance from soma 50 µm): 3.667
Sholl analysis, Mean at distance from soma ([2]; distance from soma 55 µm): 3.571
Sholl analysis, Mean at distance from soma ([2]; distance from soma 60 µm): 3.381
Sholl analysis, Mean at distance from soma ([2]; distance from soma 65 µm): 3.238
Sholl analysis, Mean at distance from soma ([2]; distance from soma 70 µm): 2.905
Sholl analysis, Mean at distance from soma ([2]; distance from soma 75 µm): 2.857
Sholl analysis, Mean at distance from soma ([2]; distance from soma 80 µm): 3.429
Sholl analysis, Mean at distance from soma ([2]; distance from soma 85 µm): 3.429
Sholl analysis, Mean at distance from soma ([2]; distance from soma 90 µm): 3.381
Sholl analysis, Mean at distance from soma ([2]; distance from soma 95 µm): 2.619
Sholl analysis, Mean at distance from soma ([2]; distance from soma 100 µm): 2.714
effect of pretreatment on spinogenic effect of LSD [3, 5]: not M100907 prevented the spinogenic effect of LSD
6e: Mean Diff. (Vehicle:Vehicle vs. treatment), Bonferroni's multiple comparisons test ([3]; substance alone (with vehicle)): -2.8
6e: Mean (spinogenesis, spine density) ([3]; substance alone (with vehicle), Vehicle:Vehicle mean 7.05): 9.85
